# In PubChem BioAssay (NCI):
# Several values for one entry are separate records, joined by “and”; a condition that tells them apart may be missing. Identical values can stand only once.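 Grown in 96-well plates, cells were treated for 48 hours with each compound at five concentrations. Insufficient inhibition: endpoint recorded as highest concentration tested. At the GI50, growth is halved. TGI: concentration producing complete growth inhibition.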
# What was measured:
# Assay in all cases: DTP human tumour cell line panel, 48 h
# [1] = system: COLO 205 colon
# [2] = system: OVCAR-3 ovarian
# [3] = system: HOP-92 NSCLC
# [4] = system: T-47D breast
# [5] = system: HCT-15 colon
# [6] = system: SNB-19 CNS
# [7] = system: SF-295 CNS
# [8] = system: SK-OV-3 ovarian
Compound,GI50 [1],TGI [1],GI50 [2],TGI [2],GI50 [3],TGI [3],GI50 [4],TGI [4],GI50 [5],TGI [5],GI50 [6],TGI [6],GI50 [7],TGI [7],GI50 [8],TGI [8]
CC(C)(C)c1cc(-c2nc3c(F)c(F)c(F)c(F)c3[nH]2)cc(C(C)(C)C)c1O,> 100 µM,> 100 µM,> 100 µM,> 100 µM,> 100 µM,> 100 µM,> 100 µM,> 100 µM,> 100 µM,> 100 µM,> 100 µM,> 100 µM,> 100 µM,> 100 µM,> 100 µM,> 100 µM
Nc1ncnc2c1ncn2C1OC(COC2C(CO)OC(OC(C(=O)O)C(O)C(OP(=O)(O)O)C(O)C(=O)O)C(O)C2O)C(O)C1O (stereo unspecified),–,> 100 µM,–,> 100 µM,–,–,–,–,–,> 100 µM,–,> 100 µM,–,> 100 µM,–,> 100 µM
c1ccc2c3c(ccc2c1)-c1c(ccc2c(NCCCCN4CCCCC4)cccc12)C3,2.33 µM,6.77 µM,1.21 µM,2.52 µM,2.46 µM,7.73 µM,4.27 µM,> 100 µM,1.86 µM,3.79 µM,22.2 µM,63.5 µM,1.78 µM,3.35 µM,10 µM,35.3 µM
COc1cc(C)c(NC(=O)CN(C)C)cc1Nc1nc(Nc2cccc(F)c2C(N)=O)c2cc[nH]c2n1,0.014 µM,0.552 µM,0.682 µM,1.86 µM,0.0124 µM,2.66 µM,3.81 µM,8.38 µM,1.98 µM,6.9 µM,4.02 µM,16 µM,2.13 µM,11.1 µM,2.67 µM,6.29 µM
Fc1cccc(-c2[nH]nc3nc(Nc4cccnc4)sc23)c1,3.3 µM,> 100 µM,1.68 µM,13.5 µM,> 100 µM,> 100 µM,8.69 µM,> 100 µM,0.948 µM,> 100 µM,–,–,3.82 µM,> 100 µM,> 100 µM,> 100 µM
COC1=C(OC)[C@]2(OC)c3c(O)c(OC)c4c(c3O[C@@]23O[C@@H](c2ccccc2)CC=C3C1=O)[C@@H](O)C[C@H](c1ccccc1)O4,–,–,0.204 µM,0.517 µM,0.244 µM,0.641 µM,0.224 µM,0.621 µM,0.157 µM,0.34 µM,2.11 µM,9.69 µM,1.78 µM,3.57 µM,1.76 µM,3.45 µM
Nc1ccc(-c2ccc(-c3nc4cc(Cl)c(Cl)cc4[nH]3)cc2)cc1,0.0953 µM,> 37.7 µM,0.944 µM,–,23 µM,65 µM,0.275 µM,> 100 µM,0.406 µM,> 100 µM,23.7 µM,> 100 µM,0.419 µM,–,> 79.9 µM,> 100 µM
O=C(O)c1ccccc1Nc1ccc2nnc(-c3ccncc3)n2n1,13 µM,30.8 µM,9.7 µM,24.8 µM,16.9 µM,35.8 µM,4.3 µM,22.3 µM,6.88 µM,66.3 µM,14.2 µM,40.8 µM,13.3 µM,40.1 µM,22 µM,> 100 µM
N#CSc1ccc(S(N)(=O)=O)cc1,–,> 100 µM,–,> 100 µM,–,> 100 µM,–,> 100 µM,–,> 100 µM,–,> 100 µM,–,> 100 µM,–,> 100 µM
Oc1c(I)cc(I)cc1CN(Cc1ccccn1)Cc1ccccn1,2 µM,15.1 µM,1.83 µM,15.1 µM,1.18 µM,9.04 µM,1.34 µM,10.6 µM,0.453 µM,> 40.6 µM,0.86 µM,> 64.2 µM,0.658 µM,> 27.1 µM,0.476 µM,5.3 µM
CCCCCCNCCCNc1c2ccccc2nc2cccc([N+](=O)[O-])c12,–,0.0149 µM and 0.0415 µM,0.0395 µM,0.0477 µM and 0.206 µM,–,0.0792 µM and 0.0693 µM,0.0503 µM,0.288 µM and 0.457 µM,–,> 100 µM,0.017 µM,–,0.0263 µM,0.059 µM and 0.422 µM,–,0.278 µM and 0.39 µM
Cc1cc(N(CCOS(C)(=O)=O)CCOS(C)(=O)=O)ccc1C=Nc1ccc(-c2csc(-c3ccc(Br)cc3)n2)cc1,–,2.89 µM,–,44.3 µM,–,38.3 µM,–,80.1 µM,–,50.3 µM,–,> 88.1 µM,–,50.5 µM,–,15.6 µM
COc1cc(/C=C2\C[C@H]3[C@@H]4CC=C5C[C@@H](OC(C)=O)CC[C@]5(C)[C@H]4CC[C@]3(C)[C@H]2OC(C)=O)ccc1OCCN1CCCCC1,16.3 µM,> 50 µM,18.5 µM,> 50 µM,27.6 µM,> 50 µM,> 50 µM,> 50 µM,7.59 µM,15.8 µM,46.2 µM,> 50 µM,9.57 µM,24.1 µM,–,–
CSC1(CC(=O)N2CCCCC2)C(=O)Nc2ccccc21 (stereo unspecified),–,> 100 µM,–,> 100 µM,–,–,–,> 100 µM,–,> 100 µM,–,> 100 µM,–,> 100 µM,–,> 100 µM
O=S(=O)(CCCCl)SCCCCl,–,> 69.2 µM,–,> 66.6 µM,–,78.3 µM,–,98.2 µM,–,54.7 µM,–,> 100 µM,–,> 93.4 µM,–,> 100 µM
COc1cc(N2CCC(N3CCN(C)CC3)CC2)ccc1Nc1ncc(Cl)c(Nc2ccccc2S(=O)(=O)C(C)C)n1,0.114 µM,0.469 µM,2.22 µM,6.87 µM,0.0476 µM,0.433 µM,1.59 µM,3.55 µM,1.94 µM,11.5 µM,2.07 µM,12.2 µM,1.8 µM,10.3 µM,1.83 µM,4.02 µM
C/C(=C\c1ccn(-c2ccc(N)cc2F)n1)[C@@H]1C[C@@H]2O[C@]2(C)CCC[C@H](C)[C@H](O)[C@@H](C)C(=O)C(C)(C)[C@@H](O)CC(=O)O1,0.0172 µM,0.442 µM,0.0166 µM,0.159 µM,6.51 µM,> 50 µM,0.0605 µM,> 50 µM,0.0226 µM,> 50 µM,0.242 µM,> 50 µM,0.0576 µM,> 50 µM,0.172 µM,> 50 µM
